# Target: T1, APOL1 G1 Protein (Homo sapiens, UniProt O14791, I384M/S342G)
# T1 sequence (O14791 28-398 S342G/I384M): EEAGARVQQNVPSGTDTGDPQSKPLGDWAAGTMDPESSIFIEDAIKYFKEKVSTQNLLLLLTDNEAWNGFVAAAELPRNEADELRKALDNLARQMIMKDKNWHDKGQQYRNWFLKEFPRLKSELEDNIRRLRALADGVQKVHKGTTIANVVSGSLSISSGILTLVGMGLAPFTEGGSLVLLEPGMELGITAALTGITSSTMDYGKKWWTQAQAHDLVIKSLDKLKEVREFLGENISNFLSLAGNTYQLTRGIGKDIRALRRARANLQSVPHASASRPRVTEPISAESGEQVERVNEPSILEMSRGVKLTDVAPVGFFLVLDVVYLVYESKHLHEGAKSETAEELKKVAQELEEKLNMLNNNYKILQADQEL
# Assay: Trypanosoma brucei brucei lysis assay using APOL1 recombinant protein (AlamarBlue viability)
# Assay type: cell-based
# Conditions: Trypanosoma brucei brucei lysis, recombinant APOL1, AlamarBlue; read-out: Trypanosoma Assay (IC50)
# In short: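 Bloodstream-form T. b. brucei Lister 427 VSG 221, 120,000 parasites/well in phenol red-free, FBS-free medium, lysed by recombinant APOL1 G1 with compound (10-point dose response, 0.1% DMSO final). Viability read by AlamarBlue fluorescence against a parasite standard curve.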
row,SMILES,IC50 [nM]
1,CC1C[C@H](NC(=O)[C@H]2C[C@H](c3c(-c4ccc(F)cc4)[nH]c4c(F)cc(F)cc43)C2)C(=O)N1 (mixture of isomers) [Compound 84],250 to 1000
2,O=C1CC(NC(=O)[C@H]2C[C@H](c3c(-c4ccc(F)cc4)[nH]c4c(F)cc(F)cc43)C2)CN1 (mixture of isomers) [Compound 44],> 1000
3,CC(NC(=O)[C@H]1C[C@H](c2c(-c3ccc(F)cc3)[nH]c3c(F)cc(F)cc32)C1)C(N)=O (mixture of isomers) [Compound 68],250 to 1000
4,CC(NC(=O)[C@H]1C[C@H](c2c(-c3ccc(F)cc3)[nH]c3c(F)cc(F)cc32)C1)c1ccn(C)n1 (mixture of isomers) [Compound 75],< 250
5,CC(NC(=O)[C@H]1C[C@H](c2c(-c3ccc(F)cc3)[nH]c3c(F)cc(F)cc32)C1)c1ccnn1C (mixture of isomers) [Compound 76],> 1000
6,CC(NC(=O)[C@H]1C[C@H](c2c(-c3ccc(F)cc3)[nH]c3c(F)cc(F)cc32)C1)c1ccn[nH]1 (mixture of isomers) [Compound 81],250 to 1000
7,"NC(=O)CNC(=O)[C@H]1C[C@H](c2c(-c3ccc(F)cc3)[nH]c3c(F)cc(F)cc32)C1 [Compound 1, N-(2-amino-2-oxo-ethyl)-3-[5,7-difluoro-2-(4-fluorophenyl)-1H-indol-3-yl]cyclobutanecarboxamide]",< 250
8,O=C1NCCC1NC(=O)[C@H]1C[C@H](c2c(-c3ccc(F)cc3)[nH]c3c(F)cc(F)cc32)C1 (stereo partly shown) [Compound 2],< 250
9,NCC(O)CNC(=O)[C@H]1C[C@H](c2c(-c3ccc(F)cc3)[nH]c3c(F)cc(F)cc32)C1 (stereo partly shown) [Compound 3],250 to 1000
10,NCCCNC(=O)[C@H]1C[C@H](c2c(-c3ccc(F)cc3)[nH]c3c(F)cc(F)cc32)C1 [Compound 4],< 250
11,O=C(NCC1CC(F)(F)C1)[C@H]1C[C@H](c2c(-c3ccc(F)cc3)[nH]c3c(F)cc(F)cc32)C1 [Compound 41],> 1000
12,O=C(NCC1CCOCC1)[C@H]1C[C@H](c2c(-c3ccc(F)cc3)[nH]c3c(F)cc(F)cc32)C1 [Compound 42],> 1000
13,O=C1NCC[C@H]1NC(=O)[C@H]1C[C@H](c2c(-c3ccc(F)cc3)[nH]c3c(F)cc(F)cc32)C1 [Compound 45],< 250
14,"O=C(NCCO)[C@H]1C[C@H](c2c(-c3ccc(F)cc3)[nH]c3c(F)cc(F)cc32)C1 [Compound 46, 3-[5,7-difluoro-2-(4-fluorophenyl)-1H-indol-3-yl]-N-(2-hydroxyethyl)cyclobutanecarboxamide]",< 250
15,O=C(NC1(CO)CC1)[C@H]1C[C@H](c2c(-c3ccc(F)cc3)[nH]c3c(F)cc(F)cc32)C1 [Compound 47],< 250
16,Cn1cnc(CNC(=O)[C@H]2C[C@H](c3c(-c4ccc(F)cc4)[nH]c4c(F)cc(F)cc43)C2)c1 [Compound 48],< 250
17,CN(CC1(CO)CC1)C(=O)[C@H]1C[C@H](c2c(-c3ccc(F)cc3)[nH]c3c(F)cc(F)cc32)C1 [Compound 49],> 1000
18,O=C(CNC(=O)[C@H]1C[C@H](c2c(-c3ccc(F)cc3)[nH]c3c(F)cc(F)cc32)C1)NC1CC1 [Compound 50],> 1000
19,CN(CC(N)=O)C(=O)[C@H]1C[C@H](c2c(-c3ccc(F)cc3)[nH]c3c(F)cc(F)cc32)C1 [Compound 51],250 to 1000
20,O=C([C@H]1C[C@H](c2c(-c3ccc(F)cc3)[nH]c3c(F)cc(F)cc32)C1)N(CCO)C1CC1 [Compound 52],250 to 1000
21,COCC1(CNC(=O)[C@H]2C[C@H](c3c(-c4ccc(F)cc4)[nH]c4c(F)cc(F)cc43)C2)CC1 [Compound 53],> 1000
22,COCC1(NC(=O)[C@H]2C[C@H](c3c(-c4ccc(F)cc4)[nH]c4c(F)cc(F)cc43)C2)CC1 [Compound 54],< 250
23,CCOCC1(CNC(=O)[C@H]2C[C@H](c3c(-c4ccc(F)cc4)[nH]c4c(F)cc(F)cc43)C2)CC1 [Compound 55],> 1000
24,NC(=O)C1(NC(=O)[C@H]2C[C@H](c3c(-c4ccc(F)cc4)[nH]c4c(F)cc(F)cc43)C2)CC1 [Compound 56],250 to 1000
25,O=C([C@H]1C[C@H](c2c(-c3ccc(F)cc3)[nH]c3c(F)cc(F)cc32)C1)N1C[C@@H](CO)OCC12CC2 [Compound 57],> 1000
